# According to US12465579B2, “Compositions and methods for treating homocystinuria and other conditions” (THE REGENTS OF THE UNIVERSITY OF COLORADO, A BODY CORPORATE, priority 2019, dated 2025):
# Columns and labels:
# HO HCU mice [1] = experiment: Plasma Hcy, cysteine and metabolite levels in HO HCU mice treated via drinking water; format: in vivo, mouse; conditions: for further lowering of Hcy due to betaine in the presence of the amino acid: about 3.0% w/v amino acid combined with about 3.0% w/v betaine in drinking water, one week; for plasma Hcy / plasma cysteine levels: HO mice, about 3.0% (w/v) in drinking water ad libitum for one week, normal methionine diet
# Protocol: It is noted that WT mice (n=6) were untreated controls. HO HCU mice (N=8, 4 of each sex in each group) were either untreated or treated with about 3.0% (w/v) glycine w/v or about 3.0% (w/v) serine given in drinking water supplied ad libitum for one week.
# In accordance with these methods, HO HCU mice (N=8, 4 of each sex in each group) were treated with either about 3.0% glycine w/v or about 3.0% w/v serine given in drinking water supplied ad libitum for one week in the presence and absence of about 3.0% w/v betaine. Plasma samples were taken from the mice at various times and Hcy levels were determined.
# Plasma Hcy levels were determined from HO HCU mice (n=8 per group) in the presence and absence of either about 5.0% w/v sodium formate alone or in combination with about 3.0% betaine given in drinking water given ad libitum. […]
# DMGDH = experiment: Western blot analysis of hepatic DMGDH protein levels in HO HCU mice; format: in vivo, mouse
# Protocol: In other exemplary experiments, it is noted that methotrexate (MTX) treatment represses hepatic DMGDH protein levels even further in experimental HO HCU mice which supports the hypothesis that expression of this enzyme is sensitive to THF levels. In accordance with these methods, Western blot analysis of hepatic DMGDH protein levels in HO HCU mice in the presence and absence of methotrexate levels were assessed.
# As illustrated herein, FIGS. 10A-10B represents a Western blot comparing the level of DMGDH and GAPDH (control) for untreated (HO) and treated (HO+MTX, methotrexate) mice (HO) using the HCU mouse model (10A); and further illustrated in a histogram plot (10B), level of intensity of DMDGH for untreated (HO) and treated (HO+MTX, methotrexate) mice (HO) using the HCU mouse model. This figure represents an N=9 per group and this figure is a representative of three independent experiments. P<0.05.
# In another exemplary method, experiments were performed to measure levels of a critical enzyme in treated and untreated mouse models (HO).
# As found in FIGS. 15A-15B, a Western blot comparing the level of DMGDH and GAPDH (control) for untreated (HO), treated (e.g. formate agent) and treated with standard treatment combinations (e.g. formate and trimethylglycine (e.g. betaine)) using the HCU mouse model (15A); and further illustrating in a histogram plot (15B), level of intensity of DMDGH for untreated (HO), treated (e.g. formate agent) and treated with standard treatment combinations (e.g. formate and trimethylglycine (e.g. betaine)) using the HCU mouse model in certain embodiments disclosed herein. Western blotting analysis of hepatic DMGDH protein levels in HO HCU mice in the presence and absence of either about 5.0% sodium formate alone or in combination with about 3.0% betaine given ad libitum in drinking water for about one week. N=9 per group. This figure is representative of three independent experiments.
# A394V mice = experiment: Plasma Hcy in NKH knock-in mouse model (GLDC mutation A394V) challenged with glycine
# Protocol: In another exemplary experiment, NKH as represented in the experimental mouse model, A394V mice was tested for levels of Hcy in the NKH mouse model when exposed to various agents.
# In this experiment, a knock-in mouse model with the clinically observed human GLDC mutation A394V engineered into the mouse gene was used. This mutation retains a small amount of residual enzyme that is sufficient to create a viable model.
# Data shown has an N=5 animals per group and is representative of 2 independent experiments.
# Cbs null mouse [2] = experiment: Hcy lowering, survival and liver injury in Cbs null mouse model; format: in vivo; conditions: Cbs null mice with severe liver damage
# From the text: In one exemplary method, an acceptable mouse mode of HCU is used to study various effects of exemplary compositions disclosed herein on aberrant Hcy levels. To date, the majority of research on HCU has been performed using a CBS knockout mouse model. These Cbs (−/−) animals suffer from pronounced liver injury and typically die within 2-3 weeks of birth.
# In an alternative experiment, agents were used to verify involvement of BHMT in the homocystinuria treatment process. In these exemplary methods, a Cbs null mouse was used where severe liver damage to the mouse model interferes with standard HCU treatments to reduce Hcy.
# hepatic 5-methyl-THF = experiment: Hepatic metabolomic analysis of 5-MeTHF in HO mice; format: in vivo, mouse; conditions: betaine 3% w/v in drinking water ad libitum
# From the text: As illustrated in one example, see FIG. 2, HCU (HO) induces a significant accumulation of hepatic 5-methyl-THF which by sequestering one carbon units has the potential to decrease the available pool of THF available to the betaine pathway for lowering Hcy. FIG. 2 illustrates an example of hepatic metabolomic analysis of HO and WT controls compared to an HO mouse treated with betaine. Comparative hepatic metabolomic analysis of HO mice and WT controls illustrate about a 10-fold accumulation in the MTHFR product 5-MeTHF. Betaine treatment alone reduced 5-MeTHF by about 15-25%. Data illustrated in FIG. 2 is derived from the livers of 8 (4 male, 4 female) individual HO or WT or HO Betaine mice per group. Betaine was given at 3% w/v in drinking water given ad libitum. P<0.0001 vs WT.
# Cbs null mouse [3] = conditions: betaine treatment; cited from earlier work
# HO HCU mice [4] = experiment: Long-term betaine treatment of HO HCU mice without methionine-restriction; format: in vivo, mouse
# BHMT = BHMT protein level in liver during long-term betaine treatment; format: in vivo
# From the text: By this observation, it raised the possibility that the BHMT protein is impaired in its function. […] In this context, further induction of BHMT expression observed in a long-term betaine treatment group could constitute a not entirely successful compensatory mechanism designed to mitigate the effects of diminished BHMT activity.
# In other embodiments disclosed herein, it was observed that BHMT is unusual in that it constitutes approximately 2% of total protein in the liver. During long-term betaine treatment this concentration rises to up to four to five fold (about 8-10%) of total hepatic protein which is an enormous amount of protein that would require zinc for its function. The increased requirement for zinc cannot be supplied because zinc cannot be stored in mammals and must be supplemented by diet or other source. Unfortunately, dietary sources of zinc are typically very high in protein and therefore precluded by the low methionine diet required of HCU patients. Therefore, long term betaine treatment in HCU could induce a significant zinc deficiency in a subject, impairing BHMT protein function and concomitantly reducing the betaine response.
# BHMT is unusual in that it constitutes approximately 2% of total protein in the liver. […]
# DHFR = experiment: Western blotting analysis of hepatic DHFR protein levels in HO HCU mice; format: in vivo, mouse; conditions: betaine treated, not restored to control levels
# Protocol: In other exemplary experiments, levels of DHFR were assessed using the HO mouse model in untreated and betaine treated mice. […] In addition, intensity levels of DHFR were measured and further illustrated in a histogram plot. As illustrated, level of intensity of DHFR for wild type (WT), treated (HO+betaine) and untreated mice (HO) using the HCU mouse model was examined. It is noted that the level of DHFR in betaine treated mice was not restored to control levels and only about a 5-10% improvement was observed (4B). (See FIGS. 4A-4B). As noted herein, Western blotting analysis of hepatic DHFR protein levels in WT and HO HCU mice. N=9 per group.
# [5] = test system: mouse model of MTR deficient homocystinuria; experiment: Betaine supplementation in mouse model of MTR deficient homocystinuria; format: in vivo
# From the text: In the following exemplary experiments, it was observed that betaine supplementation was limited as observed in a mouse model of MTR deficient homocystinuria. As noted in FIG. 1, Homocystinuria can occur due to defects in the Hcy remethylation enzymes MTR or MTHFR. It was observed that supplementation of betaine in certain experiments with a mouse model of MTR deficient homocystinuria lead to reduction of tHcy of approximately 25% having little effect on the condition. This modest decrease in betaine mediated treatment of MTR deficient homocystinuria has also been observed in human patients with this form of homocystinuria.
# [6] = betaine treatment of the HO model
smiles,measurement,setting,value
O=S(=O)([O-])[O-].[Zn+2] [Zinc sulfate],average decrease in plasma homocysteine,"HO HCU mice [1]; 8 HO HCU mice, 0.05% w/v Zinc sulfate in drinking water ad libitum for one week",25%
same,"decrease in betaine efficacy during long term betaine treatment, zinc combined with betaine","HO HCU mice [1]; HO HCU mice, zinc supplementation with betaine, data not shown",prevented
"CNCC(=O)O [sarcosine, sarcosine (methylglycine)]",further lowering of Hcy due to betaine in the presence of the amino acid,HO HCU mice [1]; HO HCU mice,also observed
CN(Cc1cnc2nc(N)nc(N)c2n1)c1ccc(C(=O)N[C@@H](CCC(=O)O)C(=O)O)cc1 [methotrexate],hepatic DMGDH protein levels,DMGDH; methotrexate treatment,represses
NCC(=O)O [glycine],further lowering of Hcy due to betaine in the presence of the amino acid,HO HCU mice [1]; HO HCU mice,reduced and/or completely prevented
same,plasma Hcy,HO HCU mice [1],significantly lowered
same,plasma cysteine levels,HO HCU mice [1],increased
same,plasma Hcy on glycine challenge,"A394V mice; mouse, in vivo",massive increase
same,lowering of Hcy in the Cbs null mouse model,Cbs null mouse [2],unable to lower Hcy
"C[N+](C)(C)CC(=O)O [betaine, N,N,N-trimethylglycine]",reduction of hepatic 5-MeTHF,hepatic 5-methyl-THF,15-25%
same,fertility of female Cbs (-/-) mice,Cbs null mouse [3],restored fertility
same,lowering of Hcy in Cbs (-/-) mice,Cbs null mouse [3],without significantly lowering Hcy
same,"severe liver injury, steatosis, and fibrosis in surviving Cbs (-/-) mice",Cbs null mouse [3],not significantly improved
same,survival of Cbs (-/-) mice,Cbs null mouse [3],improved survival
same,ability of betaine treatment to lower homocysteine,"HO HCU mice [4]; long-term betaine treatment, no methionine-restriction",diminished significantly over time
same,coagulation phenotype,HO HCU mice [4]; prolonged betaine treatment,reversion to a hypercoagulative phenotype
same,plasma levels of TNF-α and IL-Ip,HO HCU mice [4]; prolonged betaine treatment,significant increase
same,reduction of Hcy levels by standard treatment alone,"HO HCU mice [1]; HO mouse model, betaine alone, as previously observed",15-25%
same,AdoHcy levels,HO HCU mice [1]; [6],fivefold decrease
same,decrease in plasma AdoMet,HO HCU mice [1]; [6],40%
same,plasma DMG,HO HCU mice [1]; [6],increase
same,plasma MG,HO HCU mice [1]; [6],increase
same,plasma cysteine,HO HCU mice [1]; [6],increase
same,plasma methionine,HO HCU mice [1]; [6],increase
same,levels of BHMT protein,BHMT,significantly higher levels
same,BHMT as share of total hepatic protein,BHMT; approximately 2% normally,8-10%
same,improvement of hepatic DHFR level,DHFR,5-10%
same,reduction of tHcy,[5],approximately 25%
O=C[O-].[Na+] [sodium formate],plasma Hcy levels,"HO HCU mice [1]; HO HCU mice, about 5.0% w/v sodium formate alone in drinking water, normal methionine/protein diet",significantly lowered
same,"Hcy levels, formate combined with the standard treatment (betaine)","HO HCU mice [1]; HO HCU mice, about 5.0% w/v sodium formate with about 3.0% betaine in drinking water, normal protein diet",near normal levels
same,hepatic DMGDH expression levels,"DMGDH; about 5.0% sodium formate alone in drinking water, about one week",restore normal expression levels
same,"response level for restoring DMGDH, formate agent combined with betaine","DMGDH; about 5.0% sodium formate with about 3.0% betaine in drinking water, about one week",surprisingly synergistic
same,glycine induced increase in Hcy,"A394V mice; A394V NKH mice, concomitant formate about 5.0% w/v in drinking water with about 5.0% w/v glycine",significantly reduced
same,lowering of Hcy in the Cbs null mouse model,Cbs null mouse [2],unable to lower Hcy
N[C@@H](CO)C(=O)O [serine],further lowering of Hcy due to betaine in the presence of the amino acid,HO HCU mice [1]; HO HCU mice,reduced and/or completely prevented
same,plasma Hcy,HO HCU mice [1],significantly lowered
same,plasma cysteine levels,HO HCU mice [1],increased
same,lowering of Hcy in the Cbs null mouse model,Cbs null mouse [2],unable to lower Hcy
N[C@@H](Cc1c[nH]cn1)C(=O)O [histidine],further lowering of Hcy due to betaine in the presence of the amino acid,HO HCU mice [1]; HO HCU mice,also observed
N[C@@H](Cc1c[nH]c2ccccc12)C(=O)O [tryptophan],further lowering of Hcy due to betaine in the presence of the amino acid,HO HCU mice [1]; HO HCU mice,also observed
